Source: ChEMBL document CHEMBL1201862, “PubChem BioAssay data set” (2004)
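The compound was tested at five concentrations on cells cultured in 96-well plates, with a 48-hour exposure period. Here, GI50 denotes the concentration required for 50% inhibition of growth.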 Active and inactive are the calls of the source. Cut-off read from the data, not from the text of the source: active = GI50 up to about 1.1 µM and inactive = higher.

Legend:
Assay in all cases: NCI anticancer screen, dose series, 48 h
EKVX = test system: EKVX
SK-OV-3 = test system: SK-OV-3
HCT-116 = test system: HCT-116
KM12 = test system: KM12
MOLT-4 = test system: MOLT-4
SF-539 = test system: SF-539
HT-29 = test system: HT-29
TK-10 = test system: TK-10
OVCAR-3 = test system: OVCAR-3
UACC-62 = test system: UACC-62
HOP-62 = test system: HOP-62
OVCAR-5 = test system: OVCAR-5
NCI-H226 = test system: NCI-H226
SK-MEL-5 = test system: SK-MEL-5
SNB-75 = test system: SNB-75
Malme-3M = test system: Malme-3M
UO-31 = test system: UO-31
MDA-MB-435 = test system: MDA-MB-435
SK-MEL-28 = test system: SK-MEL-28
NCI-H23 = test system: NCI-H23

Measured: GI50

Cc1ccnc(NC(=S)Nc2ccccc2Cl)c1
inactive: EKVX 40.1 µM | SK-OV-3 83.8 µM | HCT-116 > 100 µM | KM12 > 100 µM | MOLT-4 > 100 µM | SF-539 > 100 µM | HT-29 > 100 µM | TK-10 > 100 µM | OVCAR-3 > 100 µM | UACC-62 63.1 µM | HOP-62 34.7 µM | OVCAR-5 > 100 µM | NCI-H226 63.5 µM | SK-MEL-5 > 100 µM | SNB-75 13 µM | Malme-3M 53.5 µM | UO-31 > 100 µM | MDA-MB-435 > 100 µM | SK-MEL-28 > 100 µM

Nc1ccc(-c2nc3ccccc3s2)cc1
inactive: EKVX 33.2 µM | SK-OV-3 45.5 µM | HCT-116 18 µM | KM12 21.4 µM | MOLT-4 23.1 µM | SF-539 23 µM | HT-29 19.4 µM | TK-10 24.5 µM | OVCAR-3 13.3 µM | UACC-62 18.4 µM | HOP-62 36.9 µM | OVCAR-5 18.7 µM | NCI-H226 25.3 µM | SK-MEL-5 21.6 µM | SNB-75 23.8 µM | Malme-3M 17.6 µM | NCI-H23 18.8 µM | UO-31 12.6 µM | MDA-MB-435 17.9 µM | SK-MEL-28 17.1 µM

O=C1OC(c2ccco2)=N/C1=C\c1ccc(Cl)c(Cl)c1
inactive: EKVX 75.9 µM | SK-OV-3 47.2 µM | HCT-116 72.8 µM | KM12 > 100 µM | MOLT-4 > 100 µM | SF-539 50 µM | HT-29 > 100 µM | TK-10 66.7 µM | OVCAR-3 89.7 µM | UACC-62 > 100 µM | HOP-62 27.4 µM | OVCAR-5 > 100 µM | NCI-H226 57.5 µM | SK-MEL-5 > 100 µM | SNB-75 53.8 µM | Malme-3M 86.1 µM | NCI-H23 > 100 µM | MDA-MB-435 > 100 µM | SK-MEL-28 > 100 µM

O=c1c2cccnc2[nH]c2ccc3cn[nH]c3c12
inactive: EKVX 3.48 µM | SK-OV-3 > 10 µM | HCT-116 3.61 µM | KM12 5.05 µM | MOLT-4 > 10 µM | SF-539 7.52 µM | HT-29 > 10 µM | TK-10 > 10 µM | OVCAR-3 > 10 µM | UACC-62 > 10 µM | HOP-62 > 10 µM | OVCAR-5 > 10 µM | NCI-H226 5.38 µM | SK-MEL-5 > 10 µM | SNB-75 7.89 µM | Malme-3M > 10 µM | NCI-H23 > 10 µM | MDA-MB-435 > 10 µM | SK-MEL-28 > 10 µM

O=C(O)CC(O)(C(=O)O)C(O)C(=O)O (stereo not given)
inactive: EKVX > 1000 µM | SK-OV-3 > 1000 µM | HCT-116 > 1000 µM | KM12 > 1000 µM | MOLT-4 > 1000 µM | SF-539 > 1000 µM | HT-29 > 1000 µM | TK-10 > 1000 µM | OVCAR-3 > 1000 µM | UACC-62 933 µM | HOP-62 > 1000 µM | OVCAR-5 > 1000 µM | NCI-H226 > 1000 µM | SK-MEL-5 247 µM | SNB-75 > 1000 µM | Malme-3M > 1000 µM | NCI-H23 > 1000 µM | MDA-MB-435 826 µM | SK-MEL-28 > 1000 µM

CCOC(=O)C(Cl)(NC(=O)OCc1ccccc1)C(F)(F)F (stereo not given)
inactive: EKVX > 100 µM | SK-OV-3 > 100 µM | HCT-116 > 100 µM | KM12 > 100 µM | MOLT-4 > 100 µM | SF-539 > 100 µM | HT-29 > 100 µM | TK-10 > 100 µM | OVCAR-3 > 100 µM | HOP-62 > 100 µM | OVCAR-5 > 100 µM | NCI-H226 > 100 µM | SK-MEL-5 > 100 µM | SNB-75 > 100 µM | Malme-3M > 100 µM | NCI-H23 > 100 µM | UO-31 > 100 µM | MDA-MB-435 > 100 µM | SK-MEL-28 > 100 µM
